# Assay results from US10786571B2, “Hydrophilic gel for topical delivery of 5-aminolevulinic acid” (Zimmer Biotech GmbH, priority 2015, dated 2020).
# Key:
# [1] = Stability of 5-ALA / product; format: physicochemical; settings: different storage conditions
# [2] = cited from earlier work
# [3] = aqueous solution; cited from earlier work
molecule,measurement,setting,value
"NCC(=O)CCC(=O)O [5-ALA, 5-aminolevulinic acid]",long-term stability in double chamber tube,[1],long-term stable at different storage conditions without degradation
same,sensitivity to daylight after treatment,[2],1 to 2 days
same,pH of best stability of aqueous solutions,[3],< 6
Porfimer Sodium [Photofrin],sensitivity to daylight after treatment,[2],30 to 60 days
